Experimental data: the Kinase Knowledgebase extract (Sharma et al. 2016)
Values after ≈ are worked out from the molar mass of the structure shown.

Tests used:
EGFR (mouse) [1] = molecular target: EGFR (mouse) (UniProt P00533); details: Swiss 3T3
EGFR (human) [2] = molecular target: EGFR (human) (UniProt P00533); details: a431
EGFR (human) [3] = molecular target: EGFR (human) (UniProt P00533)
EGFR [4] = molecular target: EGFR (UniProt P00533)
MAPK14 [5] = molecular target: MAPK14 (UniProt Q16539); experiment: Inhibition of MAPK14 Kinase Activity; details: for inhibition: concentration not given here
ROCK2 = ROCK2 (UniProt O75116); experiment: Inhibition of ROCK-II Kinase Activity; details: concentration not given here
EGFR [6] = molecular target: EGFR (UniProt P00533); details: concentration not given here
EGFR (human) [7] = molecular target: EGFR (human) (UniProt P00533); details: a431; remark: listed apart in the source
MAPK14 [8] = molecular target: MAPK14 (UniProt Q16539); experiment: Inhibition of MAPK14 Kinase Activity (Binding Assay)
MAPK14 [9] = molecular target: MAPK14 (UniProt Q16539); experiment: Inhibition of MAPK14 Kinase Activity (Spectrophometric Assay); details: concentration not given here
EGFR [10] = molecular target: EGFR (UniProt P00533); remark: listed apart in the source
EGFR [11] = molecular target: EGFR (UniProt P00533); remark: listed apart in the source
EGFR (murine) = EGFR (murine) (UniProt P00533); details: nih3t3
CDK2 [12] = molecular target: CDK2 (UniProt P24941); experiment: Enzyme Assay
CDK2 [13] = molecular target: CDK2 (UniProt P24941); experiment: Enzyme Assay; remark: listed apart in the source
EGFR [14] = molecular target: EGFR (UniProt P00533); experiment: Inhibition of EGFr Enzyme
EGFR [15] = molecular target: EGFR (UniProt P00533); details: concentration not given here; remark: listed apart in the source
EGFR (human) [16] = molecular target: EGFR (human) (UniProt P00533); remark: listed apart in the source
EGFR (mouse) [17] = molecular target: EGFR (mouse) (UniProt P00533); details: balb/mk
EGFR [18] = molecular target: EGFR (UniProt P00533); remark: listed apart in the source
MAPK14 [19] = molecular target: MAPK14 (UniProt Q16539); experiment: Inhibition of TNF-alpha Production
EGFR [20] = molecular target: EGFR (UniProt P00533); remark: listed apart in the source
EGFR (human) [21] = molecular target: EGFR (human) (UniProt P00533); remark: listed apart in the source
EGFR [22] = molecular target: EGFR (UniProt P00533); remark: listed apart in the source
MAPK14 [23] = molecular target: MAPK14 (UniProt Q16539); experiment: CSBP binding - Inhibition of Prostaglandin H Synthase Type-1 Enzyme Assay
MAPK14 [24] = molecular target: MAPK14 (UniProt Q16539); experiment: CSBP binding - Inhibition of RBL-1 5 Lipoxygenase Enzyme Assay
MAPK14 [25] = molecular target: MAPK14 (UniProt Q16539)
EGFR [26] = molecular target: EGFR (UniProt P00533); remark: listed apart in the source

EGFR (human), sequence (P00533 whole entry, looked up): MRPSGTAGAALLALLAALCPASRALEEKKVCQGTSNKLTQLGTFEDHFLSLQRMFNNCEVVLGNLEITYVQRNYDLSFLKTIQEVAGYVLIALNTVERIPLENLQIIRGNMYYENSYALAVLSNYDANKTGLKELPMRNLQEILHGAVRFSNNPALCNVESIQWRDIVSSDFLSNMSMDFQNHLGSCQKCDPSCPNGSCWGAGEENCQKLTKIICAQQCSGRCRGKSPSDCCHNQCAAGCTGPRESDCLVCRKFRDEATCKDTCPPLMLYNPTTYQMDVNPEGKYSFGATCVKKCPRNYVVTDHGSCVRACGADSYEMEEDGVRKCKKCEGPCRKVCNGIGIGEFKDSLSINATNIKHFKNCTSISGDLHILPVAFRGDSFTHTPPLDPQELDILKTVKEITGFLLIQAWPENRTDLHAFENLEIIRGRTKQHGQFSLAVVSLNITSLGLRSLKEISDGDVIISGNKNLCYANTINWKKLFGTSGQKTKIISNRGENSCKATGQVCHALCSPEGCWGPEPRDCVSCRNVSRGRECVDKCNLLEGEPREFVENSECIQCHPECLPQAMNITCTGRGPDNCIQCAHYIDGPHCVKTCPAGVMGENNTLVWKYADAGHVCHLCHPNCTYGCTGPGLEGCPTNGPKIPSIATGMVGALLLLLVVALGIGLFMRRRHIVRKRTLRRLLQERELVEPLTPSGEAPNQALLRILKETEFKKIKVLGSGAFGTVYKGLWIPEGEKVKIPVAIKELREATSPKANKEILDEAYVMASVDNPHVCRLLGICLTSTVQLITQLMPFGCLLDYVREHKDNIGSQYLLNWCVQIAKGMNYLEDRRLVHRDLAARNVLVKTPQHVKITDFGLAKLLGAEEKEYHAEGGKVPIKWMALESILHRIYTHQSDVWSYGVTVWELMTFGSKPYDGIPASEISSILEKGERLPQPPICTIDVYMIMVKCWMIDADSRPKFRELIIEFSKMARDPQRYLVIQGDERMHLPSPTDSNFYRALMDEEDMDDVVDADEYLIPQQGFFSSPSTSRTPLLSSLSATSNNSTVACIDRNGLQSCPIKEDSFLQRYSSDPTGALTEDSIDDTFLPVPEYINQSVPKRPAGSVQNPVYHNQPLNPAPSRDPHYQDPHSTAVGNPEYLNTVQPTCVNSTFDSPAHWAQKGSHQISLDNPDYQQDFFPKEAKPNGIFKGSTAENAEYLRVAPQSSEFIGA
EGFR (murine), sequence (P00533 whole entry, looked up): as above
EGFR, sequence (P00533 whole entry, looked up): as above
MAPK14, sequence (Q16539 whole entry, looked up): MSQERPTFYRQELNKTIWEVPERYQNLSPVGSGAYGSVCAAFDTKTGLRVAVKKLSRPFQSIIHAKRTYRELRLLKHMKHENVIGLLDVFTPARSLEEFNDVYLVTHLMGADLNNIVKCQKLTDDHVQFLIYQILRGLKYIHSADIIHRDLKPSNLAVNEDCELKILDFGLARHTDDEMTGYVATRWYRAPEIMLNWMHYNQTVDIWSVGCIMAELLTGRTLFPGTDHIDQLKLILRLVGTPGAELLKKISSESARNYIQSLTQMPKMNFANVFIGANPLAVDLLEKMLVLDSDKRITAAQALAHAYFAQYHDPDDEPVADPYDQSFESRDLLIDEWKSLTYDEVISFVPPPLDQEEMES

Question: For `Cc1cc2ncc(-c3cccs3)nc2cc1C`, which IC50 (EGFR (mouse) [1]) is on record?
Answer: Its IC50 is greater than 30000 nM.

Question: How did the IC50 (EGFR (human) [2]) turn out when `CCOC(=O)C(C#N)=Cc1cc(C(C)(C)C)cc(C(C)(C)C)c1` was run?
Answer: The IC50 was 20000 nM.

Question: Which IC50 (EGFR (human) [3]) does the source give for `N#Cc1cnc2cc3c(cc2c1Nc1ccc(F)c(Cl)c1)N(C(=O)/C=C/CCl)CCO3` here?
Answer: The IC50 was 1000 nM.

Question: How did the IC50 (EGFR [4]) turn out when `C/C(O)=C(\C#N)C(=O)Nc1cc(Br)ccc1Br` was run?
Answer: Its IC50 is greater than 278000 nM.

Question: What about the Ki (EGFR [4]) of the same molecule?
Answer: Its Ki is 166000 nM.

Question: Which inhibition (MAPK14 [5]) does the source give for `Brc1c(Br)c(Br)c2[nH]nnc2c1Br` here?
Answer: Its inhibition is -7%.

Question: What about the inhibition (ROCK2) of the same molecule?
Answer: The inhibition was 9%.

Question: `COc1ccc(C#CC(C)(C)N)cc1-c1n[nH]c2nc(Nc3ccc(F)cc3F)ccc12` was tested. Which inhibition (EGFR [6]) did it give?
Answer: Its inhibition is -43%.

Question: `Nc1ccc(NC(=O)Nc2cccc3c2C(=O)c2c-3n[nH]c2-c2ccc(O)cc2)cc1` was tested. Which GI50 (EGFR (human) [7]) did it give?
Answer: The GI50 was greater than 10000 nM.

Question: Which results are given for `CC12CC(C(=O)O)CC(C)(C1)C(=O)N(Cc1cccc(-n3nc(C(C)(C)C)cc3NC(=O)Nc3ccc(Cl)cc3)c1)C2=O` (stereo unspecified)?
Answer: IC50 (MAPK14 [8]): 10000 nM; inhibition (MAPK14 [9]): 70%

Question: For `Brc1cccc(Nc2ncnc3cc4c(cc23)OCO4)c1`, which IC50 (EGFR [10]) is on record?
Answer: Its IC50 is 15 nM.

Question: With `COC1=CC(=O)C(Nc2ncnc3cc(OCC4CCN(C)CC4)c(OC)cc23)=CC1=O` as the molecule, how does the IC50 (EGFR [11]) read?
Answer: The IC50 was 2200 to 200000 nM.

Question: For `O=C1Nc2ccccc2/C1=C/c1ccncc1`, which IC50 (EGFR (murine)) is on record?
Answer: The IC50 was greater than 100000 nM.

Question: For `Cc1c(-c2ccnc(Nc3cccc(CCNS(C)(=O)=O)c3)n2)sc(=O)n1C`, which Ki (CDK2 [12]) is on record?
Answer: The Ki was 39 nM.

Question: And the Ki (CDK2 [13])?
Answer: The Ki was 42 nM.

Question: Which IC50 (EGFR [14]) does the source give for `Cc1cccc(Nc2ncnc3cc(NCCCN4CCCCC4)ncc23)c1` here?
Answer: The IC50 was 5.6 nM.

Question: For `O=C1Nc2ccccc2/C1=C/c1ccccc1`, which IC50 (EGFR (murine)) is on record?
Answer: Its IC50 is greater than 100000 nM.

Question: `O=C1NC(=O)c2c1c1c3ccccc3[nH]c1c1[nH]c3cc(O)c(O)cc3c21` was tested. Which inhibition (EGFR [15]) did it give?
Answer: The inhibition was 50 to 80%.

Question: With `CCOc1cc2ncc(C#N)c(Nc3ccc(F)c(Cl)c3)c2cc1NC(=O)CC(CN(C)C)SCC(NC(=O)CC[C@@H](N)C(=O)O)C(=O)NCC(=O)O` (stereo partly specified) as the molecule, how does the IC50 (EGFR (human) [16]) read?
Answer: Its IC50 is 1.7 µg/mL (≈ 2.19 µM).

Question: For `CC(=O)NCc1ccc(Nc2nccc(-c3sc(=O)n(C)c3C)n2)cc1`, which Ki (CDK2 [12]) is on record?
Answer: Its Ki is 34 nM.

Question: What about the Ki (CDK2 [13]) of the same molecule?
Answer: The Ki was 220 nM.

Question: `COc1ccc(OC)c(/C=C2\C(=O)Nc3ccccc32)c1` was tested. Which IC50 (EGFR (murine)) did it give?
Answer: Its IC50 is 11000 nM.

Question: For `Cc1c(-c2ccccc2)[nH]c2ncnc(Nc3cccc(Cl)c3)c12`, which IC50 (EGFR (mouse) [17]) is on record?
Answer: The IC50 was greater than 50000 nM.

Question: For `N#Cc1cnc2cc3c(cc2c1Nc1ccc(F)c(Cl)c1)N(C(=O)/C=C/CBr)CCO3`, which IC50 (EGFR (human) [3]) is on record?
Answer: Its IC50 is 1000 nM.

Question: With `CC(C)(C)c1cc(C=C(C#N)C#N)cc(C(C)(C)C)c1O` as the molecule, how does the IC50 (EGFR (human) [2]) read?
Answer: Its IC50 is 100 nM.

Question: Which results are given for `CN(C)c1cc2ncnc(Nc3cccc(Br)c3)c2cn1`?
Answer: IC50 (EGFR [18]): 14 nM; IC50 (EGFR [14]): 0.09 nM

Question: For `CN(C)c1nc2c(Br)c(Br)c(Br)c(Br)c2[nH]1`, which inhibition (MAPK14 [5]) is on record?
Answer: The inhibition was 15%.

Question: What about the inhibition (ROCK2) of the same molecule?
Answer: The inhibition was 31%.

Question: `CN1CC2CCC1CC2Nc1cc(-c2ccccc2Cl)c2c(c1)N(c1c(Cl)cccc1Cl)C(=O)NC2` (stereo unspecified) was tested. Which IC50 (MAPK14 [19]) did it give?
Answer: The IC50 was 20 nM.

Question: And the IC50 (MAPK14 [5])?
Answer: The IC50 was 0.4 nM.

Question: How did the IC50 (EGFR [11]) turn out when `COc1cc2c(NC3=CC(=O)C(OC(CF)CF)=CC3=O)ncnc2cc1OCC1CCN(C)CC1` was run?
Answer: The IC50 was 1800 to 117000 nM.

Question: With `CN1CCC(Oc2cccc3ncnc(Nc4ccc(OCc5cscn5)c(Cl)c4)c23)CC1` as the molecule, how does the IC50 (EGFR [20]) read?
Answer: Its IC50 is 280 nM.

Question: How did the IC50 (EGFR (mouse) [17]) turn out when `Cc1cccc(Nc2ncnc3[nH]c4c(c23)CCCC4)c1` was run?
Answer: Its IC50 is greater than 50000 nM.

Question: For `Cc1nc2cc3nc(-c4cccs4)cnc3cc2n1C`, which IC50 (EGFR (mouse) [1]) is on record?
Answer: Its IC50 is greater than 30000 nM.

Question: With `CS(=O)(=O)CCNCc1ccc(-c2ccc3ncnc(Nc4ccc(OCc5cccc(F)c5)c(Br)c4)c3c2)o1` as the molecule, how does the IC50 (EGFR (human) [21]) read?
Answer: The IC50 was less than 100 nM.

Question: With `COc1ccc(-c2[nH]nc3c2C(=O)c2c(NC(=O)Nc4ccc(O)cc4)cccc2-3)cc1` as the molecule, how does the GI50 (EGFR (human) [7]) read?
Answer: The GI50 was greater than 10000 nM.

Question: What does the source list for `CCS(=O)(=O)c1ccc(OC)c(Nc2ncc(-c3cccc(-c4ccccn4)c3)o2)c1`?
Answer: IC50 (EGFR [22]): > 10000 nM; IC50 (CDK2 [12]): 1700 nM; IC50 (MAPK14 [5]): > 10000 nM

Question: Which inhibition (EGFR [15]) does the source give for `O=C1NCc2c1c1c3ccc(O)cc3[nH]c1c1[nH]c3ccccc3c21` here?
Answer: Its inhibition is 50 to 80%.

Question: For `CC(C)(C)c1cc(C=C(C#N)C(N)=S)cc(C(C)(C)C)c1`, which IC50 (EGFR (human) [2]) is on record?
Answer: Its IC50 is 20000 nM.

Question: For `Fc1ccc(-c2nc[nH]c2-c2ccncc2)cc1`, which IC50 (MAPK14 [23]) is on record?
Answer: The IC50 was greater than 100000 nM.

Question: And the IC50 (MAPK14 [24])?
Answer: The IC50 was greater than 100000 nM.

Question: With `COCC(=O)NCCn1cnc(-c2ccc(F)cc2)c1-c1ccnc(OCCC2CCCCC2)n1` as the molecule, how does the IC50 (MAPK14 [25]) read?
Answer: The IC50 was less than 50000 nM.

Question: Which IC50 (EGFR (mouse) [1]) does the source give for `Cc1nc2cc3nc(-c4ccccc4)cnc3cc2n1C` here?
Answer: The IC50 was greater than 30000 nM.

Question: How did the IC50 (EGFR [18]) turn out when `CNc1cc2ncnc(Nc3cccc(Br)c3)c2cn1` was run?
Answer: Its IC50 is 16 nM.

Question: And the IC50 (EGFR [14])?
Answer: The IC50 was 0.13 nM.

Question: `CNC(=O)N1CCN(Cc2ccnc(Nc3ncc(C#N)s3)c2)CC1` was tested. Which IC50 (EGFR [26]) did it give?
Answer: Its IC50 is greater than 19200 nM.

Question: And the IC50 (CDK2 [12])?
Answer: Its IC50 is 3940 nM.
